Experimental data from ChEMBL document CHEMBL1201862, “PubChem BioAssay data set” (2004).
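Cultured in 96-well plates, cells were exposed to test compound for 48 hours across five concentrations. GI50: concentration for 50% inhibition of growth.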 The source made the active and inactive calls. Cut-off read from the data, not from the text of the source: active = GI50 up to about 1.1 µM and inactive = higher.

Experiments:
Assay in all cases: NCI anticancer screen, dose series, 48 h
786-0 = tested on: 786-0
A549 = tested on: A549
ACHN = tested on: ACHN
BT-549 = tested on: BT-549
CAKI-1 = tested on: CAKI-1
CCRF-CEM = tested on: CCRF-CEM
COLO 205 = tested on: COLO 205
DU-145 = tested on: DU-145
EKVX = tested on: EKVX
HCC 2998 = tested on: HCC 2998
HCT-116 = tested on: HCT-116
HCT-15 = tested on: HCT-15
HL-60 = tested on: HL-60
HOP-62 = tested on: HOP-62
HOP-92 = tested on: HOP-92
HT-29 = tested on: HT-29
Hs-578T = tested on: Hs-578T
IGROV-1 = tested on: IGROV-1
K562 = tested on: K562
KM12 = tested on: KM12
LOX IMVI = tested on: LOX IMVI
M14 = tested on: M14
MCF7 = tested on: MCF7
MDA-MB-231 = tested on: MDA-MB-231
MDA-MB-435 = tested on: MDA-MB-435
MDA-N = tested on: MDA-N
MOLT-4 = tested on: MOLT-4
Malme-3M = tested on: Malme-3M
NCI-H226 = tested on: NCI-H226
NCI-H23 = tested on: NCI-H23
NCI-H460 = tested on: NCI-H460
NCI-H522 = tested on: NCI-H522
NCI/ADR-RES = tested on: NCI/ADR-RES
OVCAR-3 = tested on: OVCAR-3
OVCAR-4 = tested on: OVCAR-4
OVCAR-5 = tested on: OVCAR-5
OVCAR-8 = tested on: OVCAR-8
PC-3 = tested on: PC-3
RPMI-8226 = tested on: RPMI-8226
RXF 393 = tested on: RXF 393
SF-268 = tested on: SF-268
SF-295 = tested on: SF-295
SF-539 = tested on: SF-539
SK-MEL-28 = tested on: SK-MEL-28
SK-MEL-2 = tested on: SK-MEL-2
SK-MEL-5 = tested on: SK-MEL-5
SK-OV-3 = tested on: SK-OV-3
SN12C = tested on: SN12C
SNB-19 = tested on: SNB-19
SNB-75 = tested on: SNB-75
SR = tested on: SR
SW-620 = tested on: SW-620
T47D = tested on: T47D
TK-10 = tested on: TK-10
U-251 = tested on: U-251
UACC-257 = tested on: UACC-257
UACC-62 = tested on: UACC-62
UO-31 = tested on: UO-31
A498 = tested on: A498

## O=C1Nc2ccccc2/C1=C1/Nc2ccccc2/C1=N\OCCNCC(O)C(O)C(O)C(O)CO (centres undefined)
786-0
  GI50: 18.1 µM (inactive)
A549
  GI50: 44.4 µM (inactive)
ACHN
  GI50: > 50 µM (inactive)
BT-549
  GI50: 13.9 µM (inactive)
CAKI-1
  GI50: 38.5 µM (inactive)
CCRF-CEM
  GI50: 10.5 µM (inactive)
COLO 205
  GI50: 12.1 µM (inactive)
DU-145
  GI50: 21.2 µM (inactive)
EKVX
  GI50: 30.3 µM (inactive)
HCC 2998
  GI50: 11.8 µM (inactive)
HCT-116
  GI50: 13.4 µM (inactive)
HCT-15
  GI50: > 50 µM
HL-60
  GI50: 5.5 µM (inactive)
HOP-62
  GI50: 11.7 µM (inactive)
HOP-92
  GI50: 10.1 µM (inactive)
HT-29
  GI50: 16.9 µM (inactive)
Hs-578T
  GI50: 13.4 µM (inactive)
IGROV-1
  GI50: 6.62 µM (inactive)
K562
  GI50: 16.3 µM (inactive)
KM12
  GI50: 5.14 µM (inactive)
LOX IMVI
  GI50: 8.53 µM (inactive)
M14
  GI50: 20.9 µM (inactive)
MCF7
  GI50: 12.4 µM (inactive)
MDA-MB-231
  GI50: 11.2 µM (inactive)
MDA-MB-435
  GI50: 9.86 µM (inactive)
MDA-N
  GI50: 9.89 µM (inactive)
MOLT-4
  GI50: 12.9 µM (inactive)
Malme-3M
  GI50: 11.2 µM (inactive)
NCI-H226
  GI50: 13.8 µM (inactive)
NCI-H23
  GI50: 10.4 µM (inactive)
NCI-H460
  GI50: 18.1 µM (inactive)
NCI-H522
  GI50: 13.4 µM (inactive)
NCI/ADR-RES
  GI50: > 50 µM (inactive)
OVCAR-3
  GI50: 11.6 µM (inactive)
OVCAR-4
  GI50: 31.5 µM (inactive)
OVCAR-5
  GI50: > 50 µM (inactive)
OVCAR-8
  GI50: 18.5 µM (inactive)
PC-3
  GI50: 10.2 µM (inactive)
RPMI-8226
  GI50: 19.1 µM (inactive)
RXF 393
  GI50: 12.5 µM (inactive)
SF-268
  GI50: 11.9 µM (inactive)
SF-295
  GI50: 30.7 µM (inactive)
SF-539
  GI50: 14.1 µM (inactive)
SK-MEL-28
  GI50: 9.73 µM (inactive)
SK-MEL-2
  GI50: 7.91 µM (inactive)
SK-MEL-5
  GI50: 8.36 µM (inactive)
SK-OV-3
  GI50: 9.66 µM (inactive)
SN12C
  GI50: 15.2 µM (inactive)
SNB-19
  GI50: 13.6 µM (inactive)
SNB-75
  GI50: 11 µM (inactive)
SR
  GI50: 9.55 µM (inactive)
SW-620
  GI50: 15.9 µM (inactive)
T47D
  GI50: 6.7 µM (inactive)
TK-10
  GI50: 35.8 µM (inactive)
U-251
  GI50: 12.9 µM (inactive)
UACC-257
  GI50: 13.5 µM (inactive)
UACC-62
  GI50: 8.93 µM (inactive)
UO-31
  GI50: > 50 µM (inactive)

## COc1cc2c(cc1OC)-c1[nH]c3ccc([N+](=O)[O-])cc3c1CC(=O)N2
786-0
  GI50: 2.35 µM (inactive)
A498
  GI50: 2.98 µM (inactive)
A549
  GI50: 2.46 µM (inactive)
ACHN
  GI50: 2.32 µM (inactive)
BT-549
  GI50: 3.15 µM (inactive)
CAKI-1
  GI50: 2.89 µM (inactive)
CCRF-CEM
  GI50: 0.975 µM (active)
COLO 205
  GI50: 0.325 µM (active)
DU-145
  GI50: 1.68 µM (inactive)
EKVX
  GI50: 5.87 µM (inactive)
HCC 2998
  GI50: 1.04 µM (active)
HCT-116
  GI50: 0.472 µM (active)
HCT-15
  GI50: 2.11 µM
HL-60
  GI50: 2.94 µM (inactive)
HOP-62
  GI50: 3.1 µM (inactive)
HT-29
  GI50: 3.83 µM (inactive)
Hs-578T
  GI50: 0.2 µM (active)
IGROV-1
  GI50: 2.39 µM (inactive)
K562
  GI50: 1.3 µM (inactive)
KM12
  GI50: 0.867 µM (active)
LOX IMVI
  GI50: 1.55 µM (inactive)
M14
  GI50: 5.38 µM (inactive)
MCF7
  GI50: 3.59 µM (inactive)
MDA-MB-231
  GI50: 4.15 µM (inactive)
MDA-MB-435
  GI50: 1.71 µM (inactive)
MDA-N
  GI50: 4.48 µM (inactive)
MOLT-4
  GI50: 1.56 µM (inactive)
NCI-H226
  GI50: 0.78 µM (active)
NCI-H23
  GI50: 4.33 µM (inactive)
NCI-H460
  GI50: 1.95 µM (inactive)
NCI/ADR-RES
  GI50: > 100 µM (inactive)
OVCAR-3
  GI50: 0.726 µM (active)
OVCAR-4
  GI50: 3.19 µM (inactive)
OVCAR-5
  GI50: 3.78 µM (inactive)
OVCAR-8
  GI50: 2.82 µM (inactive)
PC-3
  GI50: 3.29 µM (inactive)
RPMI-8226
  GI50: 3.6 µM (inactive)
RXF 393
  GI50: 1.43 µM (inactive)
SF-268
  GI50: 0.881 µM (active)
SF-295
  GI50: 3.53 µM (inactive)
SF-539
  GI50: 0.316 µM (active)
SK-MEL-28
  GI50: 6.19 µM (inactive)
SK-MEL-2
  GI50: 3.7 µM (inactive)
SK-MEL-5
  GI50: 1.58 µM (inactive)
SK-OV-3
  GI50: 3.15 µM (inactive)
SN12C
  GI50: 2.37 µM (inactive)
SNB-19
  GI50: 6.84 µM (inactive)
SNB-75
  GI50: 2.43 µM (inactive)
SR
  GI50: 0.278 µM (active)
SW-620
  GI50: 0.849 µM (active)
T47D
  GI50: 7.28 µM (inactive)
TK-10
  GI50: 2.37 µM (inactive)
U-251
  GI50: 3.32 µM (inactive)
UACC-257
  GI50: 8.49 µM (inactive)
UACC-62
  GI50: 5.4 µM (inactive)
UO-31
  GI50: 2.36 µM (inactive)
